The text below walks through data of US20070105840A1, “Pyrrolo-dihydroisoquinoline derivatives as pde10 inhibitors” (Altana Pharma AG, priority 2003, published 2007).

Consider `CCOC(=O)c1c(-c2cc(C)c(O)c(C)c2)c(C)n2c1-c1cc(OC)c(OC)cc1CC2C` (racemic) [Example 5, (5RS)-(4-Hydroxy-3,5-dimethyl-phenyl)-8,9-dimethoxy-3,5-dimethyl-5,6-dihydro-pyrrolo[2,1-a]isoquinoline-1-carboxylic acid ethyl ester], for which the melting point lay within 158 to 161 °C.

In turn, `CCOC(=O)c1c(-c2cc(C)c(O)c(C)c2)c(C)n2c1-c1cc(OC)c(OC)cc1CC2CC` (racemic) [Example 6, (5RS)-5-Ethyl-2-(4-hydroxy-3,5-dimethyl-phenyl)-8,9-dimethoxy-3-methyl-5,6-dihydro-pyrrolo[2,1-a]isoquinoline-1-carboxylic acid ethyl ester] gave a melting point of 164 to 166 °C.

In turn, `CCOC(=O)c1c(-c2cc(C)c(O)c(C)c2)c(CC)n2c1-c1cc(OC)c(OC)cc1CC2C` (racemic) [Example 9, (5RS)-3-Ethyl-2-(4-hydroxy-3,5-dimethyl-phenyl)-8,9-dimethoxy-5-methyl-5,6-dihydro-pyrrolo[2,1-a]isoquinoline-1-carboxylic acid ethyl ester] had a melting point of 188 to 190 °C.

Consider `CCOC(=O)c1c(-c2cc(OC)c(OC)c(OC)c2)c(C)n2c1-c1cc(OC)c(OC)cc1CC2C` (racemic) [Example 10, (5RS)-8,9-Dimethoxy-3,5-dimethyl-2-(3,4,5-trimethoxy-phenyl)-5,6-dihydro-pyrrolo[2,1-a]isoquinoline-1-carboxylic acid ethyl ester], for which the melting point is 116 to 118 °C.

On to `CCOC(=O)c1c(-c2cccc3ccccc23)c(C)n2c1-c1cc(OC)c(OC)cc1CC2C` (racemic) [Example 11, (5RS)-8,9-Dimethoxy-3,5-dimethyl-2-naphthalen-1-yl-5,6-dihydro-pyrrolo[2,1-a]isoquinoline-1-carboxylic acid ethyl ester], for which the melting point stood at 184 °C.

For `CCOC(=O)c1c(-c2cccc3ccccc23)c(CCC(=O)OC)n2c1-c1cc(OC)c(OC)cc1CC2C` (racemic) [Example 20, (5RS)-8,9-Dimethoxy-3-(2-methoxycarbonyl-ethyl)-5-methyl-2-naphthalen-1-yl-5,6-dihydro-pyrrolo[2,1-a]isoquinoline-1-carboxylic acid ethyl ester], the melting point was 56 to 59 °C.

Compound `CCOC(=O)c1c(-c2cc(C)c(O)c(C)c2)c(C)n2c1-c1cc(OC)c(OC)cc1C1CCCCC12` (stereo not drawn) [Example 8, (4aRS,8aRS)-cis-2-(4-hydroxy-3,5-dimethyl-phenyl)-10,11-dimethoxy-3-methyl-4a,5,6,7,8,8a-hexahydro-pyrrolo[2,1-f]phenanthridine-1-carboxylic acid ethyl ester] returned a melting point of 186 to 192 °C.

Compound `CCOC(=O)c1c(-c2cccc3ccccc23)c(C)n2c1-c1cc(OC)c(OC)cc1C1CCCCC12` (stereo not drawn) [Example 12, (4aRS,8aRS)-cis-10,11-Dimethoxy-3-methyl-2-naphthalen-1-yl-4a,5,6,7,8,8a-hexahydro-pyrrolo[2,1-f]phenanthridine-1-carboxylic acid ethyl ester] registered a melting point of 189 to 191 °C.

Regarding `CCOC(=O)c1c(-c2ccnc3ccccc23)c(C)n2c1-c1cc(OC)c(OC)cc1C1CCCCC12` (stereo not drawn) [Example 13, (4aRS,8aRS)-cis-10,11-Dimethoxy-3-methyl-2-quinolin-4-yl-4a,5,6,7,8,8a-hexahydro-pyrrolo[2,1-f]phenanthridine-1-carboxylic acid ethyl ester], the melting point fell in the range of 153 to 157 °C.

As for `CCOC(=O)c1c(-c2cc(C)c(O)c(C)c2)c(C)n2c1-c1cc(OC)c(OC)c(OC)c1CC2C` (stereo not drawn) [Example 18, (5RS)-2-(4-Hydroxy-3,5-dimethyl-phenyl)-7,8,9-bimethoxy-3,5-dimethyl-5,6-dihydro-pyrrolo[2,1-a]isoquinoline-1-carboxylic acid ethyl ester], the melting point worked out at 144 °C.

The compound `COc1cc2c(cc1OC)-c1c(C#N)c(-c3cccc4ccccc34)c(C)n1CC2` [Example 22, 8,9-Dimethoxy-3-methyl-2-naphthalen-1-yl-5,6-dihydro-pyrrolo[2,1-a]isoquinoline-1-carbonitrile] registered a melting point of 226 to 229 °C.

One may read the melting point as the temperature, or range, at which the solid turns liquid.
